The target in this assay is Human RSK2 (Homo sapiens (Human), UniProt P51812). Put plainly: Human RSK2 Assay (Kinase Glo Plus, residual ATP). The format is biochemical. Conditions: 0.75 nM His-RSK2, 0.75 μM ATP, 1.0 μM S6 Kinase/RSK Substrate Peptide 1. How it is done: Experimental Method A: Human RSK2 Assay
Human RSK2, sequence (P51812 whole entry): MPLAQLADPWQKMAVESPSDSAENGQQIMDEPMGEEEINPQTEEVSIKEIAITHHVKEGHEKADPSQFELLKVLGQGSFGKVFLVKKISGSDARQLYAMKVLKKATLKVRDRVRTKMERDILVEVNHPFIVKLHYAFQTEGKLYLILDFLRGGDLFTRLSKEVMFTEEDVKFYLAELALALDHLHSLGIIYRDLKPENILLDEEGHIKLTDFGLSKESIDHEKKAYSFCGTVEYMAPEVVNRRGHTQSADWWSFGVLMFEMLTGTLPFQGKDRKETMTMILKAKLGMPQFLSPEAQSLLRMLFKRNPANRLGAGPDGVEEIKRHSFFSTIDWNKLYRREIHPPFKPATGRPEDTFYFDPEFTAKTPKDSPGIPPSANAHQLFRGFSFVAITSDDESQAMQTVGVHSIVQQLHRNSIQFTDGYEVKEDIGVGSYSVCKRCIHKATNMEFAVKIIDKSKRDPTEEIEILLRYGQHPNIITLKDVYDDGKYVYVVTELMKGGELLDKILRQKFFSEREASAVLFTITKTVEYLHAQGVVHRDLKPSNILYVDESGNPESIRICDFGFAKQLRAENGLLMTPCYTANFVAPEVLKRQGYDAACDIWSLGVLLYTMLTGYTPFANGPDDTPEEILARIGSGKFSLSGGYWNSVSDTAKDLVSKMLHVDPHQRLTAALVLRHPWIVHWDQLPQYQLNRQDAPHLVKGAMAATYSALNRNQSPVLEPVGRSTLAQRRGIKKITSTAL
Compounds are assessed for their ability to inhibit the phosphorylation of a substrate peptide by RSK2.
Human RSK2 protein, purchased from Invitrogen, is used to measure kinase activity utilizing Kinase Glo Plus (Promega) a homogeneous assay technology, which uses a luciferin-luciferase based ATP detection reagent to quantify residual ATP. The assay is performed using 0.75 nM His-RSK2, 0.75 μM ATP and 1.0 μM S6 Kinase/RSK Substrate Peptide 1 (Upstate, catalog #12-124), in assay buffer consisting of 25 mM HEPES, pH 7.5, 10 mM MgCl2, 5 mM MnCl2, 50 mM KCl, 0.2% BSA, 0.01% CHAPS, 100 μM Na3VO4, 0.5 mM DTT, and 1% DMSO. Solutions of test compounds at various concentrations are prepared by 1:3 fold serial dilution of a 1 mM solution of compound in DMSO. The DMSO solutions are further diluted with assay buffer to a final concentration of DMSO of 5%.
The assay is performed in a 384 well, white, non-binding plate (Corning, catalogue #3574). Solutions of test compounds (10 μL) are transferred to a dry assay plate, followed by addition of 20 μL kinase and 20 μL ATP+Substrate Peptide 1 described above. The kinase reaction mixture is incubated for 90 minutes at 28° C. followed by addition of 30 μL of ATP detection reagent for 15 minutes at room temperature. The relative light unit (RLU) signal is measured on a LJL Analyst (Molecular Devices) in luminescence mode using 384 aperture. The RLU signals were converted to percent of control (POC) values using the formula: POC=100*(BCTRL−Signal)/(BCTRL−PCTRL), where Signal is the test well RLU signal, BCTRL is the average of background (negative control), which consists of ATP+peptide and compound buffer, well signals on the plate, and PCTRL is the average of positive control, which consists of kinase, ATP+peptide, and compound buffer, well signals on the plate. For concentration-responsive compounds, POC as a function of test compound concentration are fitted to a 4-parameter logistic equation of the form: Y=A+(B−A)/[1+(x/C)^D], where A, B, C, and D are fitted parameters (parameter B is fixed at zero POC), and x and y are the independent and dependent variables, respectively. The IC50 (50% inhibitory concentration) is determined as the inflection point parameter, C. Experimental Method B: Human RSK2 Trans-Reporter Assay
(In general: Kinase-Glo measures the ATP left after a reaction by luminescence.)
Usually IC50 stands for the concentration that inhibits the measured activity by half. Regarding `C[C@H]1NC(=O)c2cc3ccc(C(=O)Nc4cnn(Cc5ccccc5)c4)nc3n2[C@H]1C` (relative stereo) [Example 61, N-(1-benzyl-1H-pyrazol-4-yl)-cis-8,9-dimethyl-6-oxo-6,7,8,9-tetrahydropyrido[3′,2′:4,5]pyrrolo[1,2-a]pyrazine-2-carboxamide], the IC50 turned out to be 0.34 nM.
As for `C[C@@H]1NC(=O)c2cc3ccc(C(=O)Nc4cnn(Cc5ccccc5)c4)nc3n2[C@H]1C` (relative stereo) [Example 62, N-(1-benzyl-1H-pyrazol-4-yl)-trans-8,9-dimethyl-6-oxo-6,7,8,9-tetrahydropyrido[3′,2′:4,5]pyrrolo[1,2-a]pyrazine-2-carboxamide], the IC50 was 3 nM.
With `CCn1c(NC(=O)c2ccc3cc4n(c3n2)[C@@H](C)[C@@H](C)NC4=O)nc2ccccc21` (relative stereo) [Example 73, N-(1-ethyl-1H-benzimidazol-2-yl)- cis-8,9-dimethyl-6-oxo-6,7,8,9-tetrahydropyrido[3′,2′:4,5]pyrrolo[1,2-a]pyrazine-2-carboxamide], the IC50 was 11.6 nM.
With `CCn1c(NC(=O)c2ccc3cc4n(c3n2)[C@@H](C)[C@H](C)NC4=O)nc2ccccc21` (relative stereo) [Example 74, N-(1-ethyl-1H-benzimidazol-2-yl)- trans-8,9-dimethyl-6-oxo-6,7,8,9-tetrahydropyrido[3′,2′:4,5]pyrrolo[1,2-a]pyrazine-2-carboxamide] the figure was 1110 nM; with `C[C@H]1NC(=O)c2cc3ccc(C(=O)Nc4nc5ccccc5n4CCCN(C)C)nc3n2[C@H]1C` (relative stereo) [Example 77, N-{1-[3-(dimethylamino)propyl]-1H-benzimidazol-2-yl}-cis-8,9-dimethyl-6-oxo-6,7,8,9-tetrahydropyrido[3′,2′:4,5]pyrrolo[1,2-a]pyrazine-2-carboxamide], 29 nM; with `C[C@@H]1NC(=O)c2cc3ccc(C(=O)Nc4nc5ccccc5n4CCCN(C)C)nc3n2[C@H]1C` (relative stereo) [Example 78, N-{1-[3-(dimethylamino)propyl]-1H-benzimidazol-2-yl}-trans-8,9-dimethyl-6-oxo-6,7,8,9-tetrahydropyrido[3′,2′:4,5]pyrrolo[1,2-a]pyrazine-2-carboxamide], 205 nM.
With `Cc1cc(NC(=O)c2ccc3cc4n(c3n2)[C@@H](C)[C@@H](C)NC4=O)no1` (relative stereo) [Example 85, Cis-8,9-dimethyl-N-(5-methyl-1,2-oxazol-3-yl)-6-oxo-6,7,8,9-tetrahydropyrido[3′,2′:4,5]pyrrolo[1,2-a]pyrazine-2-carboxamide], the IC50 is 2.6 nM.
With `Cc1cc(NC(=O)c2ccc3cc4n(c3n2)[C@@H](C)[C@H](C)NC4=O)no1` (relative stereo) [Example 86, Trans-8,9-dimethyl-N-(5-methyl-1,2-oxazol-3-yl)-6-oxo-6,7,8,9-tetrahydropyrido[3′,2′:4,5]pyrrolo[1,2-a]pyrazine-2-carboxamide], the IC50 was determined as 110 nM.
Take `C[C@H]1NC(=O)c2cc3ccc(C(=O)Nc4cc(Cc5ccccc5)on4)nc3n2[C@H]1C` (relative stereo) [Example 99, N-(5-benzyl-1,2-oxazol-3-yl)-cis-8,9-dimethyl-6-oxo-6,7,8,9-tetrahydropyrido[3′,2′:4,5]pyrrolo[1,2-a]pyrazine-2-carboxamide]: the IC50 is 5.1 nM.
Under `C[C@@H]1NC(=O)c2cc3ccc(C(=O)Nc4cc(Cc5ccccc5)on4)nc3n2[C@H]1C` (relative stereo) [Example 100, N-(5-benzyl-1,2-oxazol-3-yl)-trans-8,9-dimethyl-6-oxo-6,7,8,9-tetrahydropyrido[3′,2′:4,5]pyrrolo[1,2-a]pyrazine-2-carboxamide] stands 57 nM; under `O=C(Nc1cccnc1)c1ccc2nc3n(c2c1)CCCNC3=O` [Example 1, 1-oxo-N-(pyridin-3-yl)-2,3,4,5-tetrahydro-1H-[1,4]diazepino[1,2-a]benzimidazole-8-carboxamide], 5600 nM.
On to `Cn1c(NC(=O)c2ccc3nc4n(c3c2)CCCNC4=O)nc2ccccc21` [Example 2, N-(1-methyl-1H-benzimidazol-2-yl)-1-oxo-2,3,4,5-tetrahydro-1H-[1,4]diazepino[1,2-a]benzimidazole-8-carboxamide], for which the IC50 amounted to 35 nM.
Regarding `CCn1c(NC(=O)c2ccc3nc4n(c3c2)CCCNC4=O)nc2ccccc21` [Example 3, N-(1-ethyl-1H-benzimidazol-2-yl)-1-oxo-2,3,4,5-tetrahydro-1H-[1,4]diazepino[1,2-a]benzimidazole-8-carboxamide], the IC50 worked out at 5.5 nM.
Under `CC(C)n1c(NC(=O)c2ccc3nc4n(c3c2)CCCNC4=O)nc2ccccc21` [Example 4, 1-oxo-N-[1-(propan-2-yl)-1H-benzimidazol-2-yl]-2,3,4,5-tetrahydro-1H-[1,4]diazepino[1,2-a]benzimidazole-8-carboxamide] stands 33 nM; under `Cc1ccnc(NC(=O)c2ccc3nc4n(c3c2)CCCNC4=O)c1` [Example 5, N-(4-methylpyridin-2-yl)-1-oxo-2,3,4,5-tetrahydro-1H-[1,4]diazepino[1,2-a]benzimidazole-8-carboxamide], 3200 nM.
With `O=C(Nc1cnn(Cc2ccccc2)c1)c1ccc2nc3n(c2c1)CCCNC3=O` [Example 6, N-(1-benzyl-1H-pyrazol-4-yl)-1-oxo-2,3,4,5-tetrahydro-1H-[1,4]diazepino[1,2-a]benzimidazole-8-carboxamide], the IC50 turned out to be 44 nM.
For the compound `Cc1nc(-c2cccc(NC(=O)c3ccc4nc5n(c4c3)CCCNC5=O)c2)cs1` [Example 7, N-[3-(2-methyl-1,3-thiazol-4-yl)phenyl]-1-oxo-2,3,4,5-tetrahydro-1H-[1,4]diazepino[1,2-a]benzimidazole-8-carboxamide], the half-inhibitory concentration (IC50) amounted to 1700 nM.
`O=C(Nc1cccc(F)c1)c1ccc2nc3n(c2c1)CCCNC3=O` [Example 8, N-(3-fluorophenyl)-1-oxo-2,3,4,5-tetrahydro-1H-[1,4]diazepino[1,2-a]benzimidazole-8-carboxamide]: the IC50 was found to be 960 nM.
Under `NC(=O)c1ccccc1NC(=O)c1ccc2nc3n(c2c1)CCCNC3=O` [Example 9, N-(2-carbamoylphenyl)-1-oxo-2,3,4,5-tetrahydro-1H-[1,4]diazepino[1,2-a]benzimidazole-8-carboxamide] stands 295 nM; under `Cn1cc(NC(=O)c2ccc3nc4n(c3c2)CCCNC4=O)nc1C(=O)NC1CCCC1` [Example 10, N-[2-(cyclopentylcarbamoyl)-1-methyl-1H-imidazol-4-yl]-1-oxo-2,3,4,5-tetrahydro-1H-[1,4]diazepino[1,2-a]benzimidazole-8-carboxamide], 69 nM; under `CC(C)n1ncc2cc(NC(=O)c3ccc4nc5n(c4c3)CCCNC5=O)cnc21` [Example 11, 1-oxo-N-[1-(propan-2-yl)-1H-pyrazolo[3,4-b]pyridin-5-yl]-2,3,4,5-tetrahydro-1H-[1,4]diazepino[1,2-a]benzimidazole-8-carboxamide], 870 nM.
With `O=C(Nc1cnc2ccccc2c1)c1ccc2nc3n(c2c1)CCCNC3=O` [Example 12, 1-oxo-N-(quinolin-3-yl)-2,3,4,5-tetrahydro-1H-[1,4]diazepino[1,2-a]benzimidazole-8-carboxamide] the figure was 1200 nM.

(Values after patent US9073926B2, “Heterocyclic compounds containing a pyrrolopyridine or benzimidazole core” (Boehringer Ingelheim International GmbH, priority 2009, dated 2015).)
